Target: cyclin B1 (CCNB1) (Homo sapiens, UniProt P14635)
Test: SPR
Type: binding

cyclin B1 (CCNB1), sequence (P14635 whole entry): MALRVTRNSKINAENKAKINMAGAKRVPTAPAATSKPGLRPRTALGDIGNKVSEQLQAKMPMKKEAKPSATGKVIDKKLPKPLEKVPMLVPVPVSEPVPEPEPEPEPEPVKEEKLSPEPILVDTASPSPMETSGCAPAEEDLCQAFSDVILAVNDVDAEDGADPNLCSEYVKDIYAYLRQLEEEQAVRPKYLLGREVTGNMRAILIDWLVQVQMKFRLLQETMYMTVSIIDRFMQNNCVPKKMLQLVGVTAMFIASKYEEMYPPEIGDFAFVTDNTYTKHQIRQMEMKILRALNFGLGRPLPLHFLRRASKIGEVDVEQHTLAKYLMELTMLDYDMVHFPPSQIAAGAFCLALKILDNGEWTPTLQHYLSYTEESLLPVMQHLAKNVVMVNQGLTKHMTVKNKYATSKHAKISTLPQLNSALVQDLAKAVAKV

O=c1cc(-c2ccc(O)c(O)c2)oc2cc(O)cc(O)c12 [Luteolin, 3′,4′,5,7-tetrahydroxyflavone]
Kd: ~36.7 µM
